Results published in the NIST ThermoML archive (doi:10.1021/je200811n).

Settings: Liquid, Hot wire method

F/C=C/C(F)(F)F [trans-1,3,3,3-tetrafluoropropene]
Settings	thermal conductivity [W/m/K]
203.15 K	0.1101
213.15 K	0.1064
223.15 K	0.1024
233.15 K	0.0984

Settings	thermal conductivity [W/m/K]
203.18 K, 711 kPa	0.1106
203.18 K, 5522 kPa	0.1124
203.18 K, 10459 kPa	0.114
203.18 K, 15332 kPa	0.1155
203.18 K, 20782 kPa	0.1173
203.28 K, 739 kPa	0.1103
203.28 K, 5531 kPa	0.112
203.28 K, 10473 kPa	0.1137
203.29 K, 15354 kPa	0.1152
203.29 K, 20780 kPa	0.1169
203.54 K, 5526 kPa	0.1122
203.54 K, 10469 kPa	0.1137
203.55 K, 747 kPa	0.1104
203.55 K, 15371 kPa	0.1153
203.56 K, 20781 kPa	0.1169
203.67 K, 5527 kPa	0.1118
203.67 K, 10483 kPa	0.1135
203.67 K, 15392 kPa	0.1149
203.67 K, 20820 kPa	0.1167
203.68 K, 729 kPa	0.11
203.94 K, 20822 kPa	0.1168
203.95 K, 15357 kPa	0.1149
203.96 K, 5536 kPa	0.1119
203.96 K, 10470 kPa	0.1136
203.97 K, 733 kPa	0.1102
204.1 K, 15343 kPa	0.1146
204.1 K, 20832 kPa	0.1164
204.11 K, 5538 kPa	0.1115
204.11 K, 10474 kPa	0.1133
204.12 K, 727 kPa	0.1098
204.38 K, 20839 kPa	0.1166
204.39 K, 15379 kPa	0.1146
204.4 K, 10465 kPa	0.1133
204.41 K, 5532 kPa	0.1118
204.42 K, 727 kPa	0.11
204.56 K, 15381 kPa	0.1145
204.56 K, 20849 kPa	0.1163
204.57 K, 10473 kPa	0.113
204.59 K, 5544 kPa	0.1114
204.62 K, 736 kPa	0.1094
204.85 K, 20860 kPa	0.1164
204.87 K, 15409 kPa	0.1147
204.88 K, 10437 kPa	0.1131
204.9 K, 5524 kPa	0.1115
204.92 K, 744 kPa	0.1095
205.05 K, 20874 kPa	0.116
205.06 K, 15407 kPa	0.1143
205.09 K, 10456 kPa	0.1127
205.1 K, 5515 kPa	0.1111
205.13 K, 719 kPa	0.1088
221.66 K, 461 kPa	0.1031
221.67 K, 5469 kPa	0.1047
221.74 K, 21449 kPa	0.1111
221.76 K, 463 kPa	0.1036
221.76 K, 5431 kPa	0.1048
221.76 K, 10410 kPa	0.1068
221.76 K, 15721 kPa	0.1089
221.84 K, 21448 kPa	0.1108
221.86 K, 15726 kPa	0.1087
221.88 K, 10573 kPa	0.1069
222.06 K, 464 kPa	0.1022
222.06 K, 10416 kPa	0.1071
222.08 K, 5404 kPa	0.1049
222.12 K, 21441 kPa	0.1109
222.15 K, 15723 kPa	0.1088
222.18 K, 10370 kPa	0.1067
222.19 K, 465 kPa	0.103
222.19 K, 5436 kPa	0.1046
222.24 K, 21442 kPa	0.1106
222.27 K, 15726 kPa	0.1085
222.3 K, 10660 kPa	0.1066
222.49 K, 10407 kPa	0.1072
222.5 K, 470 kPa	0.1023
222.5 K, 5467 kPa	0.105
222.5 K, 10293 kPa	0.1066
222.54 K, 21423 kPa	0.1106
222.57 K, 15731 kPa	0.1085
222.64 K, 10411 kPa	0.1065
222.65 K, 468 kPa	0.1027
222.65 K, 5467 kPa	0.1046
222.68 K, 21432 kPa	0.1103
222.72 K, 15730 kPa	0.1082
222.97 K, 10413 kPa	0.1065
222.99 K, 5478 kPa	0.1038
223 K, 470 kPa	0.1026
223 K, 21446 kPa	0.1104
223.04 K, 15727 kPa	0.1083
223.15 K, 10394 kPa	0.1061
223.16 K, 5476 kPa	0.1042
223.18 K, 469 kPa	0.1021
223.18 K, 21443 kPa	0.11
223.22 K, 15728 kPa	0.108
223.49 K, 10439 kPa	0.1055
223.5 K, 21421 kPa	0.1101
223.52 K, 5475 kPa	0.105
223.55 K, 15715 kPa	0.1081
223.7 K, 10408 kPa	0.1058
223.71 K, 21432 kPa	0.1098
223.73 K, 5485 kPa	0.104
223.75 K, 474 kPa	0.1022
223.76 K, 15729 kPa	0.1077
241.49 K, 10379 kPa	0.09991
241.51 K, 15379 kPa	0.1018
241.52 K, 20702 kPa	0.1042
241.53 K, 5318 kPa	0.09771
241.56 K, 614 kPa	0.09561
241.59 K, 10369 kPa	0.0996
241.6 K, 15368 kPa	0.1014
241.61 K, 20709 kPa	0.1038
241.62 K, 5325 kPa	0.09743
